Patent EP1027361B1, “6,11-BRIDGED ERYTHROMYCIN DERIVATIVES” (Abbott Laboratories, priority 1997, dated 1999)

What was measured:
Test in all cases: in vitro antibacterial activity, agar dilution MIC
Type in all cases: cell-based
[1] = system: Enterococcus faecium ATCC 8043; conditions: organism code II, BHI agar, 35-37 °C, 20 to 24 hours
Protocol: (§1) Erythromycin A was used for this purpose.
(§2) After incubation, each plate was visually inspected.

[2] = system: Escherichia coli JUHL; conditions: organism code QQ, BHI agar, 35-37 °C, 20 to 24 hours
Protocol: as §1, §2

[3] = system: Escherichia coli SS; conditions: organism code RR, BHI agar, 35-37 °C, 20 to 24 hours
Protocol: as §1, §2

[4] = system: Haemophilis Influenzae DILL AMP R; conditions: organism code WW, BHI agar, 35-37 °C, 20 to 24 hours
Protocol: as §1, §2

[5] = system: Micrococcus luteus ATCC 4698; conditions: organism code PP, BHI agar, 35-37 °C, 20 to 24 hours
Protocol: as §1, §2

[6] = system: Micrococcus luteus ATCC 9341; conditions: organism code OO, BHI agar, 35-37 °C, 20 to 24 hours
Protocol: as §1, §2

[7] = system: Nocardia Asteroides ATCC9970; conditions: organism code VV, BHI agar, 35-37 °C, 20 to 24 hours
Protocol: as §1, §2

[8] = system: Staphylococcus aureus CMX 553; conditions: organism code FF, BHI agar, 35-37 °C, 20 to 24 hours
Protocol: as §1, §2

[9] = system: Staphylococcus aureus CMX 642A; conditions: organism code DD, BHI agar, 35-37 °C, 20 to 24 hours
Protocol: as §1, §2

[10] = system: Staphylococcus aureus NCTC10649M; conditions: organism code EE, BHI agar, 35-37 °C, 20 to 24 hours
Protocol: as §1, §2

[11] = system: Staphylococcus epidermidis 3519; conditions: organism code HH, BHI agar, 35-37 °C, 20 to 24 hours
Protocol: as §1, §2

[12] = system: Streptococcus Pheumoniae 5649; conditions: organism code ZZA, BHI agar, 35-37 °C, 20 to 24 hours
Protocol: as §1, §2

[13] = system: Streptococcus Pheumoniae GYR 1171; conditions: organism code YY, BHI agar, 35-37 °C, 20 to 24 hours
Protocol: as §1, §2

[14] = system: Staphylococcus aureus ATCC 6538P; design: unit not given here; conditions: organism code AA, BHI agar, 35-37 °C, 20 to 24 hours
Protocol: as §1, §2

[15] = system: Streptococcus Pheumoniae ATCC6303; design: unit not given here; conditions: organism code XX, BHI agar, 35-37 °C, 20 to 24 hours
Protocol: as §1, §2

[16] = system: Streptococcus agalactiae CMX 508; design: unit not given here; conditions: organism code KK, BHI agar, 35-37 °C, 20 to 24 hours
Protocol: as §1, §2

[17] = system: Streptococcus bovis A-5169; design: unit not given here; conditions: organism code JJ, BHI agar, 35-37 °C, 20 to 24 hours
Protocol: as §1, §2

[18] = system: Streptococcus pyogenes EES61; design: unit not given here; conditions: organism code LL, BHI agar, 35-37 °C, 20 to 24 hours
Protocol: as §1, §2

[19] = system: Candida albicans CCH 442; conditions: organism code TT, BHI agar, 35-37 °C, 20 to 24 hours
Method in brief: (§3)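 Step one: prepare 12 BHI agar plates with successive aqueous dilutions of test compound. Step two: inoculate by replicator block at 1:100 (1:10 for Streptococcus and other slow growers). Step three: incubate alongside drug-free and same-class reference-compound plates, then score MIC visually.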

[20] = system: Escherichia coli DC-2; conditions: organism code SS, BHI agar, 35-37 °C, 20 to 24 hours
Method in brief: as §3

[21] = system: Staphylococcus aureus 1775; conditions: organism code GG, BHI agar, 35-37 °C, 20 to 24 hours
Method in brief: as §3

[22] = system: Staphylococcus aureus A-5278; conditions: organism code CC, BHI agar, 35-37 °C, 20 to 24 hours
Method in brief: as §3

[23] = system: Streptococcus Pheumoniae 5979; conditions: organism code ZZ, BHI agar, 35-37 °C, 20 to 24 hours
Method in brief: as §3

[24] = system: Streptococcus pyogenes 930; conditions: organism code MM, BHI agar, 35-37 °C, 20 to 24 hours
Method in brief: as §3

[25] = system: Streptococcus pyogenes PIU 2548; conditions: organism code NN, BHI agar, 35-37 °C, 20 to 24 hours
Method in brief: as §3

[26] = system: Mycobacterium smegmatis ATCC 114; design: unit not given here; conditions: organism code UU, BHI agar, 35-37 °C, 20 to 24 hours
Method in brief: as §3

[27] = system: Staphylococcus aureus A5177; design: unit not given here; conditions: organism code BB, BHI agar, 35-37 °C, 20 to 24 hours
Method in brief: as §3

CC[C@H]1OC(=O)[C@H](C)C(=O)[C@H](C)[C@@H](O[C@@H]2O[C@H](C)C[C@H](N(C)C)[C@H]2O)[C@@]2(C)C[C@@H](C)C(=O)[C@H](C)[C@H]3N(CCC=CCO2)C(=O)O[C@]13C [Example 18, Compound of Formula (II), R^p is H, m is 2, A is absent, B is absent, D is absent, E is-(CH2)r-CH=CH-, r is 0, n is 1]
minimum inhibitory concentration (MIC) [1]: 0.39 | minimum inhibitory concentration (MIC) [2]: >100 | minimum inhibitory concentration (MIC) [3]: 1.56 | minimum inhibitory concentration (MIC) [4]: 128 | minimum inhibitory concentration (MIC) [5]: 0.78 | minimum inhibitory concentration (MIC) [6]: 0.39 | minimum inhibitory concentration (MIC) [7]: 0.78 | minimum inhibitory concentration (MIC) [8]: 0.78 | minimum inhibitory concentration (MIC) [9]: 0.78 | minimum inhibitory concentration (MIC) [10]: 0.78 | minimum inhibitory concentration (MIC) [11]: 1.56 | minimum inhibitory concentration (MIC) [12]: 2 | minimum inhibitory concentration (MIC) [13]: 0.5 | minimum inhibitory concentration (MIC) [14]: 0.78 | minimum inhibitory concentration (MIC) [15]: 1 | minimum inhibitory concentration (MIC) [16]: 0.2 | minimum inhibitory concentration (MIC) [17]: 0.2 | minimum inhibitory concentration (MIC) [18]: 0.2 | minimum inhibitory concentration (MIC) [19]: >100 | minimum inhibitory concentration (MIC) [20]: >100 | minimum inhibitory concentration (MIC) [21]: >100 | minimum inhibitory concentration (MIC) [22]: >100 | minimum inhibitory concentration (MIC) [23]: >128 | minimum inhibitory concentration (MIC) [24]: >100 | minimum inhibitory concentration (MIC) [25]: 1.56 | minimum inhibitory concentration (MIC) [26]: 12.5 | minimum inhibitory concentration (MIC) [27]: 0.78

CC[C@H]1OC(=O)[C@H](C)[C@@H](O[C@H]2C[C@@](C)(OC)[C@@H](O)[C@H](C)O2)[C@H](C)[C@@H](O[C@@H]2O[C@H](C)C[C@H](N(C)C)[C@H]2O)[C@@]2(C)C[C@@H](C)C(=O)[C@H](C)[C@H]3N(CCC=CCO2)C(=O)O[C@]13C [Example 17, Compound of Formula (I), R^p is H, m is 2, A is absent, B is absent, D is absen, E is-(CH2)r-CH=CH-, r is 0, n is 1]
minimum inhibitory concentration (MIC) [1]: 0.05 | minimum inhibitory concentration (MIC) [2]: >100 | minimum inhibitory concentration (MIC) [3]: 0.78 | minimum inhibitory concentration (MIC) [4]: 8 | minimum inhibitory concentration (MIC) [5]: 0.1 | minimum inhibitory concentration (MIC) [6]: 0.02 | minimum inhibitory concentration (MIC) [7]: 0.02 | minimum inhibitory concentration (MIC) [8]: 0.1 | minimum inhibitory concentration (MIC) [9]: 0.2 | minimum inhibitory concentration (MIC) [10]: 0.2 | minimum inhibitory concentration (MIC) [11]: 0.2 | minimum inhibitory concentration (MIC) [12]: 8 | minimum inhibitory concentration (MIC) [13]: 0.015 | minimum inhibitory concentration (MIC) [14]: 0.1 | minimum inhibitory concentration (MIC) [15]: 0.015 | minimum inhibitory concentration (MIC) [16]: 0.01 | minimum inhibitory concentration (MIC) [17]: 0.01 | minimum inhibitory concentration (MIC) [18]: 0.02 | minimum inhibitory concentration (MIC) [19]: >100 | minimum inhibitory concentration (MIC) [20]: >100 | minimum inhibitory concentration (MIC) [21]: >100 | minimum inhibitory concentration (MIC) [22]: >100 | minimum inhibitory concentration (MIC) [23]: >128 | minimum inhibitory concentration (MIC) [24]: >100 | minimum inhibitory concentration (MIC) [25]: 25 | minimum inhibitory concentration (MIC) [26]: 0.2 | minimum inhibitory concentration (MIC) [27]: 6.2
